In US20260306452A1, “5-METHOXY-N,N-DIMETHYLTRYPTAMINE (5-MEO-DMT) PHARMACEUTICAL COMPOSITIONS” (Beckley Psytech Limited, priority 2023, published 2026):
Structures can show the parent of a compound that is named as a salt. Where two headings read alike, the source gives them in different places.

Legend:
[1] = Phase 1 single ascending dose study, intranasal 5-MeO-DMT HCl, plasma pharmacokinetics; assay type: in vivo, human (healthy subjects)
Procedure: In an embodiment, there is provided a dose-proportional salt of 5-MeO-DMT for use in the methods disclosed herein. In an embodiment, the dose-proportional salt of 5-MeO-DMT is the benzoate salt. A double-blind, randomised, Phase 1, single ascending dose study to evaluate the safety, tolerability and pharmacokinetic profile of intranasal 5-MeO-DMT HCl (5-MeO-DMT HCl, HPMC, water for injection (WFI) and a sodium hydroxide solution to adjust pH) in healthy subjects was performed.

[2] = assay type: in vivo, human (healthy subjects)
Procedure: A double-blind, randomised, Phase 1, single ascending dose study to evaluate the safety, tolerability and pharmacokinetic profile of intranasal 5-MeO-DMT benzoate in healthy subjects was performed.

[3] = Subjective Dose Intensity (SDI) / duration of the trip; assay type: in vivo, human
[4] = Stability profile
[5] = Irritation tolerability; details: in particular compared to the chloride salt
[6] = Hygroscopicity / water uptake; assay type: physicochemical; details: for total water uptake: between 0% RH and 90% RH at 25° C.
Procedure: (§1) In an embodiment, the 5-MeO-DMT is administered as a crystalline form of the benzoate salt. Crystalline forms of the benzoate salt are disclosed in WO2021250434 and are incorporated herein. Crystalline forms of the hydrochloride salt are also disclosed in WO2021250434 and are incorporated herein. In an embodiment, crystalline 5-MeO-DMT hydrochloride is characterised by peaks in an X-ray powder diffraction (XRPD) diffractogram at 2θ values of 9.2°±0.1°, 12.2°±0.1°, 14.1°±0.1°, 15.0°±0.1°, 18.5°±0.1°, and 19.5°±0.1°, as measured using an X-ray wavelength of 1.5406 Å. In an embodiment, the 5-MeO-DMT salt is a non-hygroscopic salt. […] The non-hygroscopic, highly soluble HBr salt of 5-MeO-DMT therefore affords the advantage of removing the need for costly and burdensome processing measures, for example the need for low humidity manufacturing environment.

[7] = assay type: in vivo, human
Excerpt: For example, some subjects report nasal discomfort when treated with a single intranasal dose of a salt of 5-MeO-DMT. Additionally, some subjects experienced nausea and vomiting when given a higher single dose of a salt of 5-MeO-DMT. So, the frequency/likelihood of physical discomfort when using the 5-MeO-DMT salt should be minimised or substantially eliminated.

[8] = 30-item Mystical Experience Questionnaire (MEQ30), mystical / peak experience; assay type: in vivo, human
Excerpt: The MEQ30 is a self-report measure that has been used to measure mystical-type experiences in studies of psychedelics. It is known that the occurrence of a mystical experience, following treatment with a psychedelic, is a primary predictor of therapeutic outcomes in patients. Typically, a complete mystical experience is defined as scoring 60% or more on all four factors of the MEQ30. The four factors of the MEQ30 are: mystical, positive mood, transcendence of time and space, and ineffability. Subjects being treated with the 5-MeO-DMT salt are coached prior to dosing, but nevertheless for some subjects, a rapid onset of an intense Mystical Experience can be unsettling. In such a scenario, the medical practitioners and associated support system is also put under an additional monitoring and care load. So, the frequency/likelihood of rapid onset of an intense Mystical Experience using the 5-MeO-DMT salt should be minimised or substantially eliminated.
Each quadrant of a pie is fully coloured if a value equal to or greater than 3 is reached for that dimension (wherein the four quadrants represent the four factors of the MEQ30: mystical, positive mood, transcendence of time and space, and ineffability). Each pie represents a single individual who received the respective dose. It can be seen that the 4/6 individuals who received 12 mg total dose of 5-MeO-DMT benzoate in a biphasic fashion achieved mystical experiences, which represents a 66% success rate.

[9] = Solubility of salts; assay type: physicochemical; details: compared to moderately hygroscopic salts, e.g. benzoate or oxalate
Procedure: as §1

[10] = 6 mg intranasal, single nostril
[11] = 8 mg intranasal, single nostril
[12] = 10 mg intranasal, single nostril
[13] = 12 mg (biphasic): 4 mg one nostril then 8 mg other nostril
[14] = 12 mg biphasic vs 12 mg monophasic
[15] = 12 mg intranasal, single nostril (monophasic)
[16] = 12 mg total dose, biphasic (4 mg + 8 mg)

## COc1ccc2[nH]cc(CCN(C)C)c2c1.Cl [5-MeO-DMT HCl]
[1]; 5 mg, 8 mg, 10 mg, 11 mg and 14 mg intranasal
  mean concentration profiles between doses: substantially similar
[1]; intranasal, healthy subjects
  dose-proportional pharmacokinetics: does not display dose-proportional pharmacokinetics

## COc1ccc2[nH]cc(CCN(C)C)c2c1.O=C(O)c1ccccc1 [5-MeO-DMT benzoate, 5-methoxy-N,N-dimethyltryptamine (5-MeO-DMT) Benzoate]
[2]; 4 mg intranasal
  AUC inf: 5.0 ng·h/mL
  Cmax: 8.7 ng/mL
  Tmax: 7.0 min
  T½: 22.4 min
[2]; [10]
  AUC inf: 9.8 ng·h/mL
  Cmax: 14.9 ng/mL
  Tmax: 9.0 min
  T½: 22.2 min
[2]; [11]
  AUC inf: 14 ng·h/mL
  Cmax: 22.1 ng/mL
  Tmax: 10.6 min
  T½: 17.7 min
[2]; [12]
  AUC inf: 15.4 ng·h/mL
  Cmax: 32.3 ng/mL
  Tmax: 8.4 min
  T½: 22.7 min
[2]; [13]
  AUC inf: 10.7 ng·h/mL
  Cmax: 16.7 ng/mL
  Tmax: 27 min
  T½: 16.1 min
[2]; [14]
  peak plasma concentration, comparison: lower peak plasma concentration
  rise to peak mean plasma concentration: slower rise to peak mean plasma concentration
[2]; 12 mg dosage, intranasal
  mean Cmax: 29 ng/mL
[2]; [15]
  AUC inf: 23 ng·h/mL
  Cmax: 28.9 ng/mL
  Tmax: 15.3 min
  T½: 26.6 min
[2]; biphasic administration
  observed peak plasma concentration vs prediction: significantly lower than that which was expected
[2]; intranasal, healthy subjects
  dose linearity of pharmacokinetics: approximately dose linear
[3]; 4 mg intranasal
  Duration of the trip (estimate based on intensity): 18 min
[3]; [10]
  Duration of the trip (estimate based on intensity): 31 min
[3]; [11]
  Duration of the trip (estimate based on intensity): 40 min
[3]; [12]
  Duration of the trip (estimate based on intensity): 46 min
[3]; [13]
  Duration of the trip (estimate based on intensity): 70 min
[3]; [14]
  length of psychedelic experience, comparison: longer psychedelic experience
[3]; 12 mg biphasic vs other doses
  duration of ‘trip’, comparison: longer duration of ‘trip’
[3]; [15]
  Duration of the trip (estimate based on intensity): 50 min
[3]; biphasic administration
  subjective intensity/mystical experience despite lower peak plasma concentration: did not result in a lower subjective intensity/mystical experience
[4]
  stability profile: good stability profile
[5]
  irritation tolerability: good irritation tolerability
[6]
  hygroscopicity: moderately hygroscopic
[7]; 4 mg intranasal
  Vomiting (% subj. incl. PBO): 33%
[7]; [10]
  Vomiting (% subj. incl. PBO): 0%
[7]; [11]
  Vomiting (% subj. incl. PBO): 0%
[7]; [12]
  Vomiting (% subj. incl. PBO): 0%
[7]; [13]
  Vomiting (% subj. incl. PBO): 17%
[7]; [15]
  Vomiting (% subj. incl. PBO): 29%
[7]; intranasal
  overall tolerability profile: good (and better than the corresponding and better known chloride salt)
[8]; 4 mg first dose followed by 8 mg second dose
  efficacy: good efficacy
[8]; 4 mg intranasal
  Peak exp. (%): 0%
[8]; [10]
  Peak exp. (%): 25%
[8]; [11]
  Peak exp. (%): 20%
[8]; [12]
  Peak exp. (%): 60%
[8]; [13]
  Peak exp. (%): 66%
[8]; 12 mg biphasic vs other doses
  % peak experience, comparison: the highest % peak experience
[8]; [15]
  Peak exp. (%): 60%
[8]; [16]
  individuals who achieved mystical experiences: 4/6
  success rate (mystical experiences, MEQ30): 66%
[8]; single intranasal dose
  MEQ30 score: > 3
[8]; singular 10 mg dose
  success rate (mystical experiences, MEQ30): 60%
[8]; singular 12 mg dose
  success rate (mystical experiences, MEQ30): 60%

## Br.COc1ccc2[nH]cc(CCN(C)C)c2c1 [5-MeO-DMT hydrobromide]
[9]
  solubility: high solubility
[6]
  hygroscopicity: substantially non-hygroscopic

## COc1ccc2[nH]cc(CCN(C)C)c2c1 [5-MeO-DMT ketoglutarate]
[6]; 90% RH
  rapid increase of water uptake: 28.140 w/w
[6]; 403RH as printed
  gradual water uptake, lower humidity: 0.13 % w/w
[6]; 801 RH as printed
  gradual water uptake, upper humidity: 2.55 w/w

## COc1ccc2[nH]cc(CCN(C)C)c2c1.O=C(O)C(=O)O [5-MeO-DMT oxalate]
[6]
  hygroscopicity: moderately hygroscopic

## COc1ccc2[nH]cc(CCN(C)C)c2c1 [5-MeO-DMT phosphate]
[6]; listed as phosphate salt
  hygroscopicity: slightly hygroscopic

## COc1ccc2[nH]cc(CCN(C)C)c2c1 [5-MeO-DMT tartrate]
[6]
  total water uptake: approximately 3.3 % w/w
[6]; listed as tartrate salt of 5-MeO-DMT
  hygroscopicity: moderately hygroscopic

## COc1ccc2[nH]cc(CCN(C)C)c2c1 [5-MeO-DMT tosylate]
[6]
  total water uptake: approximately 1.9 % w/w
[6]; listed as tosylate salt
  hygroscopicity: slightly hygroscopic

## COc1ccc2[nH]cc(CCN(C)C)c2c1 [5-MeO-DMT, 5-methoxy-N,N-dimethyltryptamine]
[2]; biphasic administration
  shape of mean plasma concentration curve: m-like biphasic curve

## CN(C)CCc1c[nH]c2ccc(O)cc12 [Bufotenin]
[2]; 6 mg dose level of 5-MeO-DMT benzoate, after the 16 minutes time point
  detection of the O-demethylated metabolite in plasma: only detected at very low levels
